This note sets out measurements from publication PMC7363839, “A Peptide-Based PD1 Antagonist Enhances T-Cell Priming and Efficacy of a Prophylactic Malaria Vaccine and Promotes Survival in a Lethal Malaria Model” (Frontiers in Immunology, 2020).

The assay relates to P. yoelii 17 XNL sporozoites. In words: P. yoelii 17 XNL sporozoite challenge of AdPyCS-immunized mice. The following applies: suboptimal AdPyCS IM; 200 μg IP days 1, 3, 5, 7; challenge day 12 with 100 sporozoites IV; AdPyCS alone 4.8 ± 0.6 days. In kind it is in vivo, BALB/c mice. As to the method:
Sporozoite challenge experiments were performed, as described previously ([32]). Briefly, immunized mice were administered 100 live P. yoelii 17 XNL sporozoites IV via the tail vein. Parasitemia was monitored from days 3 to 10 after sporozoite challenge by detecting the presence of parasitized red blood cells in thin blood smears to assess complete protection against malaria. Briefly, a drop of blood was collected from the mouse tail vein for thin blood smears on pre-cleaned glass slides. Thin blood smears were fixed with absolute methanol and then stained with diluted Giemsa stain (1:20, v/v) (Sigma-Aldrich, St. Louis, MO) for 10 min. […]
Figure 2 LD01 increases antigen-specific CD8^+ T cell numbers following AdPyCS vaccination. (A) At day 12 post-AdPyCS immunization, immunogenicity was assessed by measuring the number of splenic PyCS-specific, IFN-γ-secreting CD8^+ T cells using the ELISpot assay after stimulation with the H-2kd restricted CD8 epitope SYVPSAEQI. Data are expressed as the mean ± SD. […] Significant differences between AdPyCS + control peptide and treated mice were determined using a one-way ANOVA multiple comparisons test and are denoted by *p < 0.05 and **p < 0.005. […] Data represent two independent experiments (n = 10/group/experiment) and are expressed as the mean percent protection. […]

“OVA323−339 (KISQAVHAAHAEINEAG; UniProt P01012 323-339, looked up, fragment) [control peptide, control peptide used in AdPyCS vaccine studies]” had a time of patency of 4.7 ± 0.7 days.
